The record followed here is patent publication US20240207422A1, “NERVE TARGETING PEPTIDE CONJUGATES AND METHODS OF USE” (Alume Biosciences, Inc., priority 2022, published 2024).

This assay has as its system human nerve extract. The experiment in a line: Phage display selection on plates coated with human nerve extract (Plated Nerve2), NextGen sequence counts. The assay is classed as binding. As to conditions: unique sequence count (relative enrichment); Plated Nerve2 only. The method, then:
Several m13 phage libraries were constructed expressing randomized variants of a parent peptide (QVPWEEPYYVVKKS-SGGL; SEQ ID NO: 576). In particular, the first 14 amino acids of the parent peptide were randomized using degenerate oligonucleotide synthesis to obtain a diverse set of peptides with a mutation rate of about 50% per residue.
To accomplish this, synthesis was carried out by the XXK codon design approach, where X is any base and K is G or T. To bias synthesis towards the parent sequence, synthesis was carried out at each X position with a mixture of about 70%-85% of the parent nucleotide and 15-30% of the remaining 3 nucleotides. The resulting molecules were inserted into fADL-1e (Antibody Design Laboratories), which is a type 3 phage display vector having a cloning site on the N-terminal side of the full-length gene III protein. The fusion proteins are directed to the periplasm by the PelB leader peptide, which is inserted in the vector […].
Collectively, the phage display libraries used in the screens comprised about 600 million peptides, with sequencing analysis confirming a mutation rate of about 50% per residue.
Phage libraries were independently processed, as follows, with five biological samples: two independent samples of excised human nerve tissue, one sample of a human nerve extract, and two independent samples of human muscle tissue, as follows:
Human Nerve Extracts: Phage libraries were incubated for up to 24 hours at 4° C. in 96 well plates that had been coated with a human nerve extract. Plates were then washed with PBS and phage were eluted using 0.2M glycine pH 2.0. Phage supernatants where then neutralized with Tris pH 9.0 prior to plating on TG1 bacteria and LB agar plates. Colonies were counted to determine titer followed by DNA preparation of pools of phage and NextGen sequencing. After rounds of selection, phage were pooled and amplified for iterative selection. Phage that eluted by 0.2M glycine pH 2.0 (the nerve binders) at each round were sequenced. NextGen sequencing of pools after 2, 3 and 4 rounds of selection were used to isolate candidate sequences that were further analyzed using bioinformatics.
NextGen sequencing of pools after 2, 3 and 4 rounds of selection were used to isolate candidate sequences from each of the five samples. These five data sets were then analyzed as described in the next section.
Peptide and vector sequences were translated starting at the first start codon in the nucleotide sequence. […] Trimmed peptides with identical sequences were combined and quantified according to their frequency (count).
Following processing, an R script was written to merge the unique peptide sequences (with counts 6 or greater) from the 5 different data sets to analyze the overlap between nerve and muscle binding activity.
For the single Nerve2, Nerve3, and Plated Nerve2 (pn2) subsets, the number of counts for each group was set at a threshold giving rise to at least 100 peptides. […] As highlighted in yellow in FIG. 1B, the representative group also included 6 unique peptides overlapping between nerve2 and nerve3, 200 unique peptides overlapping between nerve2 and plated nerve2 (at least 60 counts), 4 unique peptides overlapping between nerve3 and plated nerve2. Finally, as highlighted in green in FIG. 1B, the representative group also included […] common to the nerve2, nerve3, and plated nerve2 sets.
554 (QFPYDEPYNVVKKS) [compound 554] came in with a Count of 36.

For the substance 555 (QHPWKEQYYMATKP) [compound 555], the Count stood at 36.

Turning to 556 (QLNSEEPYYHFKNY) [compound 556], the Count is 36.

As for 557 (QLPTNDPYYVLMES) [compound 557], the Count worked out at 36.
